Source: patent US20260022097A1 (priority 2022, published 2026)
Like-named read-outs stand apart in the source and are kept apart here.

What was measured:
[1] = biological target: kappa-opioid receptor (KOR) (Homo sapiens, UniProt P41145); assay: inhibition of forskolin-induced cAMP accumulation assay, KOR antagonist mode versus U50488H; type: cell-based; conditions: for IC50: read-out: KOR Antagonist IC50+/-SEM
[2] = biological target: T1, delta-opioid receptor (DOR) (Homo sapiens, UniProt P41143); assay: inhibition of forskolin-induced cAMP accumulation assay, DOR antagonist mode versus SNC80; type: cell-based; conditions: for IC50: read-out: DOR Antagonist IC50+/-SEM
[3] = biological target: mu-opioid receptor (MOR) (Homo sapiens, UniProt P35372); assay: cell-based; type: cell-based; conditions: for Emax: read-out: MOR Agonist % Emax+/-SEM; for EC50: read-out: MOR Agonist EC50+/-SEM
[4] = biological target: T1, delta-opioid receptor (DOR); assay: inhibition of forskolin-induced cAMP accumulation assay, DOR agonist mode; type: cell-based; conditions: for EC50: read-out: DOR Agonist EC50+/-SEM; for Emax: read-out: DOR Agonist % Emax+/-SEM (converted)
[5] = test system: squirrel monkeys; assay: antinociceptive effects in vivo in squirrel monkeys
[6] = biological target: T2, MOR (Homo sapiens, UniProt P35372); assay: GTP assay (G-protein activation) at MOR; type: biochemical
[7] = test system: squirrel monkeys; assay: ventilatory ratio / respiratory effects in squirrel monkeys; type: in vivo
[8] = biological target: T2, MOR; assay: binding affinity at MOR

T2 sequence (P35372 whole entry): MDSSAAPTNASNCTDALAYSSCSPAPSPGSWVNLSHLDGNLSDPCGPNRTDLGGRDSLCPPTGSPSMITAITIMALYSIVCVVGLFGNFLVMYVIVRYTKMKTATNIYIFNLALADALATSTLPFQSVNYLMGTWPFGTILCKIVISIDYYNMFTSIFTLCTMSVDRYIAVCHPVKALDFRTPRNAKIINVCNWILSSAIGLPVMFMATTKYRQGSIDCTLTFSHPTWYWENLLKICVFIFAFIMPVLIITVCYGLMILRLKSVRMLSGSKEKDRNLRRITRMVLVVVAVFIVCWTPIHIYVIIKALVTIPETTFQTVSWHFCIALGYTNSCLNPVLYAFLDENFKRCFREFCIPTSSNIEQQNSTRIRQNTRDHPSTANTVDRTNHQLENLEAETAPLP
Chain of mu-opioid receptor (MOR) (P35372 whole entry): as above
Chain of kappa-opioid receptor (KOR) (P41145 whole entry): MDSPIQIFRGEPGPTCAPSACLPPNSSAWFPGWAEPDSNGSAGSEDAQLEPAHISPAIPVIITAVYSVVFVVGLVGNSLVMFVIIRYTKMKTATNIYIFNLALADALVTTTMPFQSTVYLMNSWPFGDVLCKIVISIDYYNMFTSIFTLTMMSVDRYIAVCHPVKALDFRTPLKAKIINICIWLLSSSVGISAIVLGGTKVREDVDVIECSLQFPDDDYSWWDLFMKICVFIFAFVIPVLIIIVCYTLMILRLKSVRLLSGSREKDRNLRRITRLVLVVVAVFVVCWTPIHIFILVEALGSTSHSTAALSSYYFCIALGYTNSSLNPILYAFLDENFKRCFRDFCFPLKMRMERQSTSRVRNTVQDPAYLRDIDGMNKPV
T1 sequence (P41143 whole entry): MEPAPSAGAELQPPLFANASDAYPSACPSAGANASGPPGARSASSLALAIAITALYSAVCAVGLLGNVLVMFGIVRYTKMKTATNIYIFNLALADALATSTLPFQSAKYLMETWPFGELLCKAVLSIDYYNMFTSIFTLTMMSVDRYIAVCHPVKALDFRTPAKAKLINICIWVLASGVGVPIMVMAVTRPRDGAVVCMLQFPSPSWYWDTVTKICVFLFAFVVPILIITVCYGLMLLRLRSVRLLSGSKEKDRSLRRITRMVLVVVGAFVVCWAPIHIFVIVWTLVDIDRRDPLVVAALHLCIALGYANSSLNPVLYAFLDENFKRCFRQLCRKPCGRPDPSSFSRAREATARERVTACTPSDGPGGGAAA

Structure (SMILES) | KOR Antagonist % Imax+/-SEM ([1]; normalized to nor-BNI) | IC50 ([1]; versus EC90 of U50488H) | DOR Antagonist % Imax+/-SEM ([2]; normalized to naltrexone) | IC50 ([2]; versus EC50 of SNC80) | Emax [3] | EC50 [3] | EC50 [4] | also measured
CC=C[C@H]1C2CCC[C@@]1(c1cccc(O)c1)CCN2CCc1ccccc1 (stereo in doubt) [Compound 26, 3-((1R,5R,9R)-2-Phenethyl-9-((E)-prop-1-en-1-yl)-2-azabicyclo[3.3.1]nonan-5-yl) phenol] | 126.7 ± 2.6% | 4.02 ± 0.25 nM | 142.5 ± 23.7% | 7.52 ± 2.93 nM | – | – | – | KOR antagonist (result in words) [1]: moderately potent KOR antagonist
CCC=C[C@H]1[C@H]2CCC[C@]1(c1cccc(O)c1)CCN2CCc1ccccc1 (stereo in doubt) [Compound 29, 3-((1R,5S,9R)-9-((E)-but-1-en-1-yl)-2-phenethyl-2-azabicyclo[3.3.1]nonan-5-yl) phenol] | 109.5 ± 8.3% | 328 ± 96.9 nM | 166.6 ± 40.0% | 69 ± 4.83 nM | 95.8% | 11.6 nM | – | –
CC=C[C@@H]1[C@H]2CCC[C@]1(c1cccc(O)c1)CCN2CCc1ccccc1 (stereo in doubt) [Compound 23, 3-((1R,5S,9S)-2-Phenethyl-9-((E)-prop-1-en-1-yl)-2-azabicyclo[3.3.1]nonan-5-yl) phenol] | 114.8 ± 11.2% | 238 ± 52.6 nM | 74.5 ± 2.3% | – | 101% | 0.07 nM | > 10000 nM | MOR potency relative to morphine [3]: 30 fold; IC50 [2]: 9.69 ± 2.23 nM
C=C[C@@H]1[C@H]2CCC[C@]1(c1cccc(O)c1)CCN2CCc1ccccc1 [Compound 14, 3-((1R,5S,9S)-2-Phenethyl-9-vinyl-2-azabicyclo[3.3.1]nonan-5-yl) phenol] | 101.8 ± 19.1% | 19.8 ± 9.71 nM | – | – | 67.3% | 2.12 nM | 57 ± 21.4 nM | antinociceptive effects [5]: antinociceptive effects in some, but not all animals; Emax [6]: 10.5%; effect on ventilatory ratio [7]: without selective effects on ventilatory ratio; respiratory effects compared with morphine [7]: lessor respiratory effects; Emax [4]: 22.6%
C=C[C@H]1[C@@H]2CCC[C@@]1(c1cccc(O)c1)CCN2CCc1ccccc1 [Compound 19, 3-((1S,5R,9R)-2-Phenethyl-9-vinyl-2-azabicyclo[3.3.1]nonan-5-yl) phenol] | – | – | – | – | – | – | – | KOR Antagonist % Imax+/-SEM [1]: 28.39 ± 4.24 (104.9 ± 11.2%); KOR antagonist (result in words) [1]: weak DOR and KOR antagonist; IC50 [1]: 28.4 nM; DOR Antagonist % Imax+/-SEM [2]: 143.65 ± 41.03 (201.4 ± 35.9%); DOR antagonist (result in words) [2]: weak DOR and KOR antagonist; IC50 [2]: 144 nM
CC=C[C@@H]1C2CCC[C@@]1(c1cccc(O)c1)CCN2CCc1ccccc1 (stereo in doubt) [Compound 27, 3-((1R,5R,9S)-2-Phenethyl-9-((E)-prop-1-en-1-yl)-2-azabicyclo[3.3.1]nonan-5-yl) phenol] | 111.8 ± 2.2% | 163 ± 37 nM | – | – | 57.5% | 4.66 nM | 60.5 ± 3.74 nM | Emax [4]: 66.7%
C=C[C@H]1[C@H]2CCC[C@]1(c1cccc(O)c1)CCN2CCc1ccccc1 [Compound 13, 3-((1R,5S,9R)-2-Phenethyl-9-vinyl-2-azabicyclo[3.3.1]nonan-5-yl) phenol] | 97.1 ± 9.2% | 74 ± 30.5 nM | 119.1 ± 15.5% | 113 ± 43.6 nM | – | 1.44 nM | – | Ki [8]: 0.5 nM; MOR Agonist % Emax+/-SEM [3]: 1.44 ± 0.48 (94.7 ± 3.1%); antinociceptive effects [5]: had antinociceptive effects in vivo; Emax [6]: 20.1%; effect on ventilatory ratio [7]: decreased ventilatory ratio
CCC=C[C@@H]1[C@H]2CCC[C@]1(c1cccc(O)c1)CCN2CCc1ccccc1 (stereo in doubt) [Compound 30, 3-((1R,5S,9S)-9-((E)-but-1-en-1-yl)-2-phenethyl-2-azabicyclo[3.3.1]nonan-5-yl) phenol] | 103.8 ± 9.2% | 283 ± 46.4 nM | 182.3 ± 56.4% | 3220 ± 572 nM | 89.8% | 14.8 nM | – | –
CCC=C[C@H]1[C@@H]2CCC[C@@]1(c1cccc(O)c1)CCN2CCc1ccccc1 (stereo in doubt) [Compound 34, 3-((1S,5R,9R)-9-((E)-but-1-en-1-yl)-2-phenethyl-2-azabicyclo[3.3.1]nonan-5-yl) phenol] | 98.2 ± 2.3% | 0.79 ± 0.28 nM | 211.5 ± 24.7% | 8.22 ± 2.44 nM | – | – | – | KOR antagonist (result in words) [1]: moderately potent KOR antagonist; DOR antagonist (result in words) [2]: potent DOR antagonist
CC=C[C@H]1[C@H]2CCC[C@]1(c1cccc(O)c1)CCN2CCc1ccccc1 (stereo in doubt) [Compound 22, 3-((1R,5S,9R)-2-phenethyl-9-((E)-prop-1-en-1-yl)-2-azabicyclo[3.3.1]nonan-5-yl) phenol] | 111.6 ± 7.9% | 35 ± 9.72 nM | 143.3 ± 11.9% | 113 ± 19.8 nM | – | 2.61 nM | – | MOR Agonist % Emax+/-SEM [3]: 2.61 ± 0.64 (89.5 ± 2.9%); antinociceptive effects [5]: had antinociceptive effects; Emax [6]: 18%; effect on ventilatory ratio [7]: slightly lessor effects on ventilatory ratio; respiratory effects compared with morphine [7]: lessor respiratory effects
CCC=C[C@@H]1[C@@H]2CCC[C@@]1(c1cccc(O)c1)CCN2CCc1ccccc1 (stereo in doubt) [Compound 33, 3-((1S,5R,9S)-9-((E)-but-1-en-1-yl)-2-phenethyl-2-azabicyclo[3.3.1]nonan-5-yl) phenol] | 96.2 ± 0.9% | 12.2 ± 2.49 nM | 226.1 ± 14.0% | 520 ± 144 nM | – | – | – | –
C=C[C@@H]1[C@@H]2CCC[C@@]1(c1cccc(O)c1)CCN2CCc1ccccc1 [Compound 18, 3-((1S,5R,9S)-2-Phenethyl-9-vinyl-2-azabicyclo[3.3.1]nonan-5-yl) phenol] | 105.6 ± 4.6% | 128 ± 48.2 nM | – | – | 46.6% | 3.94 nM | 122 ± 47.1 nM | Emax [4]: 40.6%
